For 42 molecules, TGI results are on record in PubChem BioAssay (NCI).

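The compound was tested at five concentrations on cells cultured in 96-well plates, with a 48-hour exposure period. TGI denotes the concentration required for complete inhibition of growth.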 Where only a bound is given, the exact number is not on record here.

Some test systems named below: DMS 114 small cell lung; HOP-18 NSCLC; XF 498 CNS; RXF-631 renal; BT-549 breast.
Common to all, as to assay: NCI tumour cell line growth inhibition, 48 h

`c1ccc(C2N3CCCCC3[C@@H]3c4[nH]c5ccccc5c4CCN23)cc1` (stereo not given in full): the TGI in the assay on DMS 114 small cell lung, in the assay on HOP-18 NSCLC and with XF 498 CNS was over 100 µM in each case.
Regarding `Cc1cc(NCCCCCCNc2cc(C)nc3ccc(Cl)cc23)c2cc(Cl)ccc2n1`, the TGI is over 100 µM in the assay with RXF-631 renal, 36 µM in the assay on DMS 114 small cell lung and 32 µM in the assay on XF 498 CNS.
Turning to `O=C(Nc1c(Cl)cc([N+](=O)[O-])cc1Cl)/C(=N\Nc1cccc(Cl)c1)c1c(O)c2ccccc2oc1=O`, the TGI with RXF-631 renal and with DMS 114 small cell lung was over 100 µM throughout.
Take `CSc1ccc2c(cc1=O)[C@@H](NC(=O)c1ccc(F)cc1)CCc1cc(O)c(O)c(O)c1-2`: the TGI in the assay with RXF-631 renal, in the assay with DMS 114 small cell lung and in the assay with HOP-18 NSCLC was over 100 µM throughout.
Consider `CC[C@@]1(O)C(=O)OCc2c1cc1n(c2=O)Cc2c-1nc1ccccc1c2/C=N\NC(=O)C(C)N` (stereo not given in full), for which the TGI with BT-549 breast is over 22.4 µM.
Consider `CCSc1nc2n(c(=S)n1)CCN2C`, for which the TGI in the assay on DMS 114 small cell lung worked out at 39.4 µM.
As for `CN(C(=O)c1cccs1)C(=S)N1CCN(c2ccccc2)CC1`, the TGI with BT-549 breast was over 100 µM.
In turn, `C/C(=N\Nc1nc2ccccc2o1)c1ccncn1` had a TGI in the assay on BT-549 breast of over 100 µM.
For `C/C(=N/N)c1ccc2[nH]c3c(C)cc([N+](=O)[O-])c(C)c3c2c1`, the TGI with DMS 114 small cell lung was 25.8 µM; in the assay on HOP-18 NSCLC it was 24 µM; in the assay with XF 498 CNS it was 24.7 µM.
In the case of `CCC/C(=N\NC(=O)c1cc2ccccc2cc1O)C(CC)C(=O)CCC(=O)N(Cc1ccccc1)Cc1ccccc1` (stereo not given), the figures for the TGI with RXF-631 renal, with DMS 114 small cell lung and with HOP-18 NSCLC were over 100 µM, 59.7 µM and 91.1 µM, respectively.
`Cc1c2cccc-2c(OCCO)cc2c1[nH]c1ccccc12` gave a TGI with BT-549 breast of 7.34 µM.
Same read-out and setting: to `COc1cc(/C=C(\C#N)c2ccccn2)cc(Br)c1O` belongs over 100 µM; to `CCCCCCCCCCCCP(=O)(O)OCC(N)C(=O)O` (stereo not given), over 100 µM.
With `N#CC(c1cc(Cl)ncn1)c1nc2ccccc2s1` (stereo not given), the TGI in the assay with BT-549 breast turned out to be 15.2 µM.
Turning to `N/N=C(\C(=O)Nc1ccc([N+](=O)[O-])cc1)C(C1=Nc2cc([N+](=O)[O-])ccc2NC1)[N+](=O)[O-]` (stereo not given), in the assay with BT-549 breast, the TGI is over 100 µM.
Regarding `COc1cccc(-n2c(N)c(-c3nc4cc(C(F)(F)F)ccc4s3)c3ccc([N+](=O)[O-])cc3c2=O)c1`, the TGI in the assay with BT-549 breast is over 100 µM.
On to `CC(NC(=O)C(N)CC(=O)O)NC(=O)N1CCCC1` (stereo not given), for which the TGI with BT-549 breast is over 100 µM.
For `C[C@]12CCC(=O)C=C1CC[C@@H]1C2CC[C@]2(C)Nc3c(ncn3-c3ccc(F)cc3)CC12` (stereo not given in full), the TGI with BT-549 breast was 59.8 µM.
On to `Nc1ccc(N)c2c1C(=O)c1c(N)ccc(N)c1C2=O`, for which the TGI with DMS 114 small cell lung is over 100 µM; in the assay with HOP-18 NSCLC, 64.7 µM; in the assay on XF 498 CNS, over 89.2 µM.
Molecule `Cn1cnc([N+](=O)[O-])c1Sc1nc(N)nc2c1ncn2Cc1ccccc1` returned a TGI in the assay with BT-549 breast of 57.2 µM.
Still for that read-out and setting: to `COC(=O)c1scc(N)c1-n1ccc(=O)[nH]c1=O` belongs over 100 µM; to `CC(=O)O[C@H]1[C@@H](N2CCN(C)CC2)C[C@H]2[C@@H]3CC=C4C[C@@H](N5CCCC5)CC[C@]4(C)[C@H]3CC[C@@]21C`, over 100 µM.
On to `CCCCOC(=O)C1CN2C(=NC1(C(F)(F)F)C(F)(F)F)Sc1ccccc12` (stereo not given), for which the TGI in the assay on BT-549 breast was over 100 µM.
With `CC1(C)O[C@@H]2[C@@H]3OC(=O)C[C@@H]3[C@@H](COCc3ccccc3)[C@@H]2O1`, in the assay with BT-549 breast, the TGI was over 100 µM.
As for `Cc1cc2[nH]c3c(C#N)c(-c4ccccc4)c(CN4CCOCC4)c(=O)n3c2cc1C`, the TGI with BT-549 breast is over 100 µM.
Take `CC1Cc2cc(O)ccc2C2[C@@H]1C1CC[C@H](O)[C@@]1(C)C[C@@H]2O[N+](=O)[O-]` (stereo not given in full): the TGI with BT-549 breast was determined as 48.9 µM.
`CC1(C)C2CCC1(CC(=O)O)C(Cl)C2` (stereo not given) returned a TGI in the assay with BT-549 breast of over 100 µM.
The same measure, in the same setting: next, `CN1CCN(c2ccc(-n3cc(C(=O)O)c(=O)c4cc(F)c(N5CCN(C)CC5)cc43)nc2)CC1`: over 100 µM.
`C=C(C(=O)O)[C@@H]1C[C@@H]2O[C@H]1CC(C)=CCC/C(C)=C/CC[C@@]2(C)O` had a TGI in the assay on BT-549 breast of over 100 µM.
For `O=C(CSc1nnc(-c2ccc(N=Cc3ccc(Cl)cc3)cc2)o1)Nc1cccc(Cl)c1`, the TGI in the assay on DMS 114 small cell lung, with HOP-18 NSCLC and with XF 498 CNS was over 100 µM in each case.
In the case of `COC(=O)[C@@H]1C[C@]2(CC=C(C)C)c3ccccc3N(S(=O)(=O)c3ccccc3)[C@@H]2N1C(=O)OC`, the TGI in the assay with BT-549 breast was over 100 µM.
The molecule `CCOC(=O)c1cc(-c2ccc(Cl)cc2)c([N+](=O)[O-])n1C` registered a TGI in the assay with BT-549 breast of over 10 µM.
As for `COc1cc(C=O)c(-c2cc3c(cc2C=O)OCO3)c(OC)c1OC`, the TGI in the assay with RXF-631 renal, with DMS 114 small cell lung and with HOP-18 NSCLC was over 290 µM in each case.
For `CC(C)=CCC[C@H](C)[C@H]1CC[C@@H](C)c2cc(O)c(C)cc21`, the TGI in the assay with BT-549 breast was 32.7 µM.
For `Cc1cc2c(c(N)c1C)C(=O)c1ccccc1C2=O`, the TGI is over 100 µM in the assay with DMS 114 small cell lung and 56 µM in the assay on HOP-18 NSCLC.
Take `O=c1[nH]c(=O)n(C2CC(O)C(CO)O2)cc1C#Cc1cc(F)cc(F)c1` (stereo not given): the TGI in the assay on RXF-631 renal is over 100 µM; with DMS 114 small cell lung, over 100 µM; in the assay with HOP-18 NSCLC, 83.2 µM; with XF 498 CNS, over 100 µM.
As for `CN(C)/C=N/c1nc2ncn(CCOC(=O)c3ccccc3)c2c(=O)[nH]1`, the TGI with RXF-631 renal, in the assay on DMS 114 small cell lung and in the assay with HOP-18 NSCLC was over 100 µM in each case.
`O=C(/C(=C/c1cccs1)c1ccccc1)c1ccccc1` had a TGI in the assay with BT-549 breast of over 100 µM.
In turn, `CCOP(=O)(OCC)/C(C#N)=C/c1c(C)[nH]c2ccccc12` came in with a TGI with BT-549 breast of over 100 µM.
Regarding `CCOC1SC(SC)=NN1C(=O)C(OC(C)=O)C(OC(C)=O)C(OC(C)=O)C(OC(C)=O)C(=O)N1N=C(SC)SC1OCC` (stereo not given), the TGI with BT-549 breast is over 100 µM.
`NC(CCCCNC(=O)C(Cc1ccccc1)NC(=O)OCc1ccccc1)C(=O)NC(CCCCNC(=O)C(Cc1ccccc1)NC(=O)OCc1ccccc1)C(=O)NC(CCCCNC(=O)C(Cc1ccccc1)NC(=O)OCc1ccccc1)C(=O)NC(CCCCNC(=O)C(Cc1ccccc1)NC(=O)OCc1ccccc1)C(=O)NC(CCCCNC(=O)C(Cc1ccccc1)NC(=O)OCc1ccccc1)C(=O)NC(CCCCNC(=O)C(Cc1ccccc1)NC(=O)OCc1ccccc1)C(=O)O` (stereo not given): the TGI with BT-549 breast was over 100 µM.
In the assay on HOP-18 NSCLC, `COc1ccc(C#CCC(OC2OC(CO)C(O)C(O)C2O)C(O)c2ccc(OC)c(OC)c2)cc1OC` (stereo not given) yielded a TGI of over 100 µM.
